Tested on: 2-nonenal
Assay: Reduction in skin odor: 2-nonenal in urine of mice fed D2-LA ethyl ester
Type: in vivo
Conditions: BALB/c mice; feed supplemented daily, no more than about 10% of PUFAs ingested; after 4 weeks of dosing; urine collected over 2 days; versus LA ethyl ester cohort
Method: Mice are known to generate skin odor and the causative agent is 2-nonenal. This example explores the contribution of lipid chain auto-oxidation to the generation of such skin odor. Specifically, two cohorts of BALB/c mice are tested. The feed of the first cohort is supplemented daily with D2-LA ethyl ester in an amount such that D2-LA ethyl ester constitutes no more than about 10% of the PUFAs ingested. The feed provided to the other cohort is supplemented with LA ethyl ester in otherwise identical amounts. After 4 weeks of dosing, the urine from each cohort is collected over a 2-day period and then analyzed to assess differences in the amount of 2-nonenal. Alternatively, skin samples can be evaluated for sebum exudates such as by swabs for chemical components.

[2H]C([2H])(/C=C\CCCCC)/C=C\CCCCCCCC(=O)OCC [D2-linoleic acid ethyl ester]
amount of 2-nonenal: significant reduction
